Source: ChEMBL document CHEMBL4507275, “Data for DCP probe BI-2545” (2021)

Columns and labels:
[1] = tested on: Tyrosine-protein kinase ABL1 (Homo sapiens), P00519 [F317L]; conditions: Compound concentration 1000.0 nM
[2] = molecular target: Atypical kinase COQ8A, mitochondrial (Homo sapiens) (UniProt Q8NI60); conditions: Compound concentration 1000.0 nM
[3] = molecular target: Atypical kinase COQ8B, mitochondrial (Homo sapiens) (UniProt Q96D53); conditions: Compound concentration 1000.0 nM
[4] = molecular target: Mitogen-activated protein kinase kinase kinase 6 (Homo sapiens) (UniProt O95382); conditions: Compound concentration 1000.0 nM
[5] = molecular target: Bone morphogenetic protein receptor type-1B (Homo sapiens) (UniProt O00238); conditions: Compound concentration 1000.0 nM
[6] = molecular target: Serine/threonine-protein kinase BRSK2 (Homo sapiens) (UniProt Q8IWQ3); conditions: Compound concentration 1000.0 nM
[7] = molecular target: Mitotic checkpoint serine/threonine-protein kinase BUB1 (Homo sapiens) (UniProt O43683); conditions: Compound concentration 1000.0 nM
Sequence of Mitotic checkpoint serine/threonine-protein kinase BUB1 (Homo sapiens) (O43683 whole entry, looked up): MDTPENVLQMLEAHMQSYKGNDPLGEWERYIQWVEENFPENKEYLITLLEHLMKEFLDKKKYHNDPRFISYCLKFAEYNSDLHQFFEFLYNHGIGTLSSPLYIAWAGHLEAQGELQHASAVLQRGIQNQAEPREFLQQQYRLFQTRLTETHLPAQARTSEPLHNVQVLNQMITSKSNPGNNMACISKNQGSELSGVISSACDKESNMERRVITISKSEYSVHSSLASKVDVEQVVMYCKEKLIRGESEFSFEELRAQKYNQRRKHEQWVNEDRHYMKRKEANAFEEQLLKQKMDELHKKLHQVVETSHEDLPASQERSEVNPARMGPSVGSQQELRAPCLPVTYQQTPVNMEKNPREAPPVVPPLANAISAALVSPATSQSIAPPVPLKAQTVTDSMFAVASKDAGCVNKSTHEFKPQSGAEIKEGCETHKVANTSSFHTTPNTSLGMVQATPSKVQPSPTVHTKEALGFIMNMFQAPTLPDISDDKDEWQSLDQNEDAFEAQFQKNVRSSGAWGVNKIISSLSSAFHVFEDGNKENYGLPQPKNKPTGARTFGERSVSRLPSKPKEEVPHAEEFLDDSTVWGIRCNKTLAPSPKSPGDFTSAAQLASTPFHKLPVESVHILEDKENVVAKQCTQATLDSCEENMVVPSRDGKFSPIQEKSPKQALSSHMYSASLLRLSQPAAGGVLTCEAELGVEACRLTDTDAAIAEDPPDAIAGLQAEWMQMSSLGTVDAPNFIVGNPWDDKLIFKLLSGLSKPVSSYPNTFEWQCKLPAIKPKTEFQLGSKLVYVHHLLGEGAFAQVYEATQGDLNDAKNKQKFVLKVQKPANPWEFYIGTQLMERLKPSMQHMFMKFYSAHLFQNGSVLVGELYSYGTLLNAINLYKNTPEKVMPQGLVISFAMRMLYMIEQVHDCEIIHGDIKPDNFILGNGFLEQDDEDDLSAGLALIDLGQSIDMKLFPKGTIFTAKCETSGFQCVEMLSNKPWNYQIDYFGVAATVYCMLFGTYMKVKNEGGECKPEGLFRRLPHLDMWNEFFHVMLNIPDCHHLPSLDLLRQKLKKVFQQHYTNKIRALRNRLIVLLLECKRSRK

[8] = molecular target: Cyclin-dependent kinase 11B (Homo sapiens) (UniProt P21127); conditions: Compound concentration 1000.0 nM
[9] = molecular target: Cyclin-dependent kinase 19 (Homo sapiens) (UniProt Q9BWU1); conditions: Compound concentration 1000.0 nM
[10] = molecular target: Cyclin-dependent kinase 2 (Homo sapiens) (UniProt P24941); conditions: Compound concentration 1000.0 nM
[11] = molecular target: Cyclin-dependent kinase-like 1 (Homo sapiens) (UniProt Q00532); conditions: Compound concentration 1000.0 nM
[12] = molecular target: Cyclin-dependent kinase-like 5 (Homo sapiens) (UniProt O76039); conditions: Compound concentration 1000.0 nM
[13] = molecular target: Macrophage colony-stimulating factor 1 receptor (Homo sapiens) (UniProt P07333); conditions: Compound concentration 1000.0 nM
[14] = molecular target: Discoidin domain-containing receptor 2 (Homo sapiens) (UniProt Q16832); conditions: Compound concentration 1000.0 nM
[15] = tested on: Epidermal growth factor receptor (Homo sapiens), P00533 [UNDEFINED MUTATION]; conditions: Compound concentration 1000.0 nM
[16] = molecular target: Ephrin type-A receptor 8 (Homo sapiens) (UniProt P29322); conditions: Compound concentration 1000.0 nM
Sequence of Ephrin type-A receptor 8 (Homo sapiens) (P29322 whole entry): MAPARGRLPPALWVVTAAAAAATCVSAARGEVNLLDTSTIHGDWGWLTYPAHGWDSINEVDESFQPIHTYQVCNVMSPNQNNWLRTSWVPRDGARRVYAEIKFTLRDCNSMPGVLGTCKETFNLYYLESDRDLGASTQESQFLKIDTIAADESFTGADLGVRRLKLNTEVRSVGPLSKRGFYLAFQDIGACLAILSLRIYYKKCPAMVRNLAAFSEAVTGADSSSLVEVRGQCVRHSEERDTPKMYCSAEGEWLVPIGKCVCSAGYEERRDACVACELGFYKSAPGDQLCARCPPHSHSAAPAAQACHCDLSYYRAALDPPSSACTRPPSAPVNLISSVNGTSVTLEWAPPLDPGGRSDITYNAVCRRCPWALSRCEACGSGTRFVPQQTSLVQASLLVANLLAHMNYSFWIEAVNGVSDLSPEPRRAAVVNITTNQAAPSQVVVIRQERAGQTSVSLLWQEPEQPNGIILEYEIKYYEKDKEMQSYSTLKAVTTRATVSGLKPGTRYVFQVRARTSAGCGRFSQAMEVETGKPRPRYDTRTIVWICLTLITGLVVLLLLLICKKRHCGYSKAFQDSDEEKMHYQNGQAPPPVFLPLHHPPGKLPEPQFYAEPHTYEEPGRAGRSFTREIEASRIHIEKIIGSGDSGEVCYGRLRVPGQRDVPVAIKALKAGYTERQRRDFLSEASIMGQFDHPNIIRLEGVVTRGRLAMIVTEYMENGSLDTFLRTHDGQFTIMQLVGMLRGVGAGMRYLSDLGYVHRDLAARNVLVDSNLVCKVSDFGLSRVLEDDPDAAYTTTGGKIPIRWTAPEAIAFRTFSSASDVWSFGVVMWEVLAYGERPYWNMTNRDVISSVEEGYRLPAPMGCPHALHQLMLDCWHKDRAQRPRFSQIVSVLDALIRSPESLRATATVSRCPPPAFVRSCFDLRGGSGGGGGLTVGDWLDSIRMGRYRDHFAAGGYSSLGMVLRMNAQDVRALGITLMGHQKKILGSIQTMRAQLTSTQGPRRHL

[17] = molecular target: Focal adhesion kinase 1 (Homo sapiens) (UniProt Q05397); conditions: Compound concentration 1000.0 nM
Sequence of Focal adhesion kinase 1 (Homo sapiens) (Q05397 2-1052 limits assumed): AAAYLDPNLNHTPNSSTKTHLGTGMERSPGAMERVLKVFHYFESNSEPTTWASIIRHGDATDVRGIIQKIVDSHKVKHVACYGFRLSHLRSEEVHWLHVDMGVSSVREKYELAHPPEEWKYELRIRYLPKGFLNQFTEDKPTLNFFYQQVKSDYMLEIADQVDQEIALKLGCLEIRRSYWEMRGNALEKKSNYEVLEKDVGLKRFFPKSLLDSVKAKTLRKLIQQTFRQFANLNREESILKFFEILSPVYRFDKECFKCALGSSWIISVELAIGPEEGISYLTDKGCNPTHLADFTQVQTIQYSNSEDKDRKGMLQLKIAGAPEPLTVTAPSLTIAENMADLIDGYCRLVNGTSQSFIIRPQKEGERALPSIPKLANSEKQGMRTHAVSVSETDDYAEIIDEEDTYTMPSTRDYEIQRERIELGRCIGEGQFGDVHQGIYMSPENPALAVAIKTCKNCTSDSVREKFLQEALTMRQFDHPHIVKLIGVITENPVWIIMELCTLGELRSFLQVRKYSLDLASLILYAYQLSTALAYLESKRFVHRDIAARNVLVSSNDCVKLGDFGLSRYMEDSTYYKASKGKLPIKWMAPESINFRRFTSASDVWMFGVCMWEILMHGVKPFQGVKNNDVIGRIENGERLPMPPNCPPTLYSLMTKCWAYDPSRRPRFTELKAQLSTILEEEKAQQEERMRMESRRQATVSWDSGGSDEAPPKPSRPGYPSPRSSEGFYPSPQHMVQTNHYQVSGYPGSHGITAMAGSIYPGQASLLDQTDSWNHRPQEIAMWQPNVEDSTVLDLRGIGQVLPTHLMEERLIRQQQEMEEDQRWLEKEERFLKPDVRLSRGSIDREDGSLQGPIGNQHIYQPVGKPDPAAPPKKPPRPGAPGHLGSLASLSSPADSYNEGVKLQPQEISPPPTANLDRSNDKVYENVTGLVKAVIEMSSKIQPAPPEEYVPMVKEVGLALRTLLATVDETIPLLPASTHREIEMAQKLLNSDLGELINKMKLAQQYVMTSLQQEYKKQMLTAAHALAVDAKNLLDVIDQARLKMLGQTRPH

[18] = tested on: Receptor-type tyrosine-protein kinase FLT3 (Homo sapiens), P36888 [UNDEFINED MUTATION]; conditions: Compound concentration 1000.0 nM
[19] = molecular target: Serine/threonine-protein kinase ICK (Homo sapiens) (UniProt Q9UPZ9); conditions: Compound concentration 1000.0 nM
[20] = molecular target: Tyrosine-protein kinase JAK1 (Homo sapiens) (UniProt P23458); conditions: Compound concentration 1000.0 nM
[21] = molecular target: Mitogen-activated protein kinase kinase kinase 15 (Homo sapiens) (UniProt Q6ZN16); conditions: Compound concentration 1000.0 nM
[22] = molecular target: Mitogen-activated protein kinase kinase kinase 2 (Homo sapiens) (UniProt Q9Y2U5); conditions: Compound concentration 1000.0 nM
[23] = molecular target: Microtubule-associated serine/threonine-protein kinase 1 (Homo sapiens) (UniProt Q9Y2H9); conditions: Compound concentration 1000.0 nM
[24] = molecular target: Dual specificity mitogen-activated protein kinase kinase 3 (Homo sapiens) (UniProt P46734); conditions: Compound concentration 1000.0 nM
[25] = molecular target: Muscle, skeletal receptor tyrosine-protein kinase (Homo sapiens) (UniProt O15146); conditions: Compound concentration 1000.0 nM
[26] = molecular target: Serine/threonine-protein kinase Nek1 (Homo sapiens) (UniProt Q96PY6); conditions: Compound concentration 1000.0 nM
Sequence of Serine/threonine-protein kinase Nek1 (Homo sapiens) (Q96PY6 whole entry): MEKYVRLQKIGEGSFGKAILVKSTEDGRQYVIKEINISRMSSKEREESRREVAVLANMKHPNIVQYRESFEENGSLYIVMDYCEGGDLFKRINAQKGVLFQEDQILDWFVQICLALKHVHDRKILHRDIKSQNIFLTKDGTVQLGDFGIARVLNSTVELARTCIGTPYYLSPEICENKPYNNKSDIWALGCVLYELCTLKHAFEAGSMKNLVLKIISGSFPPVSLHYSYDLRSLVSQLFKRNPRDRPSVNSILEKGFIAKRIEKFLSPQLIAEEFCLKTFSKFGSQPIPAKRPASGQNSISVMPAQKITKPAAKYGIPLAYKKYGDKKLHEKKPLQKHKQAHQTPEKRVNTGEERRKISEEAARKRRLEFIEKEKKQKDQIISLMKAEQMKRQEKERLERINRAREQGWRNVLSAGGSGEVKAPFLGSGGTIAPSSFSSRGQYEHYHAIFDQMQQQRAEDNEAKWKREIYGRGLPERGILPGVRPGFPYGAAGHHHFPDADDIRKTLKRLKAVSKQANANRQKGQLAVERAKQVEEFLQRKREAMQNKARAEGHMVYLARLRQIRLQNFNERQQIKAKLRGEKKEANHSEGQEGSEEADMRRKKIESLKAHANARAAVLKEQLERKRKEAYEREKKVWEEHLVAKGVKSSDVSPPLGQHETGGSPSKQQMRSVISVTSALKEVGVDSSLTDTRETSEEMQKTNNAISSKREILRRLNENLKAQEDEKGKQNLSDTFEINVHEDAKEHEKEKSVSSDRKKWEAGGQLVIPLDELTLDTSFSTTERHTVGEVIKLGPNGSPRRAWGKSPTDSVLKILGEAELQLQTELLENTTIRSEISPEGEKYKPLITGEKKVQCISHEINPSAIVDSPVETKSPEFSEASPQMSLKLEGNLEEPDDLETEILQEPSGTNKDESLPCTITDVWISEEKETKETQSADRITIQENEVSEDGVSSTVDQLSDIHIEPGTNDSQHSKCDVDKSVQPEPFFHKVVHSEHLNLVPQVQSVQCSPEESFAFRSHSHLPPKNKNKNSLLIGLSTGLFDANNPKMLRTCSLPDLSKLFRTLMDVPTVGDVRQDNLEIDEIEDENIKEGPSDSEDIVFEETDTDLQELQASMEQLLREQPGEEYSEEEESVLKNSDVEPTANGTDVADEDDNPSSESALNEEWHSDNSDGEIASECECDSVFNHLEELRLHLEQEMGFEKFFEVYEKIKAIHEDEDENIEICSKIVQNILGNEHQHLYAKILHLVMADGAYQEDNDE

[27] = molecular target: Serine/threonine-protein kinase Nek10 (Homo sapiens) (UniProt Q6ZWH5); conditions: Compound concentration 1000.0 nM
[28] = molecular target: Cyclin-dependent kinase 16 (Homo sapiens) (UniProt Q00536); conditions: Compound concentration 1000.0 nM
[29] = molecular target: Phosphorylase b kinase regulatory subunit alpha, liver isoform (Homo sapiens) (UniProt P46019); conditions: Compound concentration 1000.0 nM
[30] = molecular target: Protein kinase C iota type (Homo sapiens) (UniProt P41743); conditions: Compound concentration 1000.0 nM
Sequence of Protein kinase C iota type (Homo sapiens) (P41743 whole entry): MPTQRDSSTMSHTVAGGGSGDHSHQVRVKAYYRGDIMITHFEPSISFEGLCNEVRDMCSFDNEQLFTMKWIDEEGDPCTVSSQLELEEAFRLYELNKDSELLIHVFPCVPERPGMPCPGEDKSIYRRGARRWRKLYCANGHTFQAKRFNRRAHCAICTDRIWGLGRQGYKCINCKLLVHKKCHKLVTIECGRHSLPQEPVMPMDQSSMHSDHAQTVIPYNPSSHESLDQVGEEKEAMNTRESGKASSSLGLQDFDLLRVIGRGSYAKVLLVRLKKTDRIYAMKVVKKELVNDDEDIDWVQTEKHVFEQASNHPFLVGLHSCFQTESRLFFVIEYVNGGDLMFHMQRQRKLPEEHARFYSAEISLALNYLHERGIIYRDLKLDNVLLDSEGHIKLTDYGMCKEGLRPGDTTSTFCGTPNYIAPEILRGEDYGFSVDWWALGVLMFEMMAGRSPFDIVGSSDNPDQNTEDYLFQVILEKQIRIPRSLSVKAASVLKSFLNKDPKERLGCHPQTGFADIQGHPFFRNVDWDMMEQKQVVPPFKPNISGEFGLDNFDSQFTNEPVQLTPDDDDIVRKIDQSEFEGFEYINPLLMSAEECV

[31] = molecular target: Receptor-interacting serine/threonine-protein kinase 2 (Homo sapiens) (UniProt O43353); conditions: Compound concentration 1000.0 nM
[32] = molecular target: Rho-associated protein kinase 2 (Homo sapiens) (UniProt O75116); conditions: Compound concentration 1000.0 nM
[33] = molecular target: Ribosomal protein S6 kinase alpha-2 (Homo sapiens) (UniProt Q15349); conditions: Compound concentration 1000.0 nM
[34] = molecular target: Serine/threonine-protein kinase Sgk2 (Homo sapiens) (UniProt Q9HBY8); conditions: Compound concentration 1000.0 nM
[35] = molecular target: Proto-oncogene tyrosine-protein kinase Src (Homo sapiens) (UniProt P12931); conditions: Compound concentration 1000.0 nM
[36] = molecular target: SRSF protein kinase 3 (Homo sapiens) (UniProt Q9UPE1); conditions: Compound concentration 1000.0 nM
[37] = molecular target: Non-receptor tyrosine-protein kinase TNK1 (Homo sapiens) (UniProt Q13470); conditions: Compound concentration 1000.0 nM
[38] = molecular target: BDNF/NT-3 growth factors receptor (Homo sapiens) (UniProt Q16620); conditions: Compound concentration 1000.0 nM
[39] = molecular target: Serine/threonine-protein kinase VRK2 (Homo sapiens) (UniProt Q86Y07); conditions: Compound concentration 1000.0 nM
[40] = molecular target: Wee1-like protein kinase (Homo sapiens) (UniProt P30291); conditions: Compound concentration 1000.0 nM
[41] = molecular target: 5-hydroxytryptamine receptor 1D (Homo sapiens) (UniProt P28221); conditions: Compound concentration 10.0 uM
[42] = molecular target: D(1A) dopamine receptor (Homo sapiens) (UniProt P21728); conditions: Compound concentration 10.0 uM
[43] = molecular target: D(3) dopamine receptor (Homo sapiens) (UniProt P35462); conditions: Compound concentration 10.0 uM
[44] = molecular target: D(1B) dopamine receptor (Homo sapiens) (UniProt P21918); conditions: Compound concentration 10.0 uM
[45] = molecular target: Sodium-dependent noradrenaline transporter (Homo sapiens) (UniProt P23975); conditions: Compound concentration 10.0 uM

In the case of `Cc1nccc(COC(=O)N2C[C@@H]3[C@@H](CNC(=O)c4ccc5[nH]nnc5c4)[C@@H]3C2)n1` [BI 3017], the residual activity [1] was 90%, the residual activity [2] was 84% and the residual activity [3] was 100%. It also gave a residual activity [4] of 78%, a residual activity [5] of 100% and a residual activity [6] of 86%. The residual activity [7] was 90%, the residual activity [8] was 100% and the residual activity [9] was 97%. For the same compound, the residual activity [10] was 77%, the residual activity [11] was 81% and the residual activity [12] was 87%. For the same compound, the residual activity [13] was 100%, the residual activity [14] was 77% and the residual activity [15] was 100%. For the same compound, the residual activity [16] was 100%, the residual activity [17] was 100% and the residual activity [18] was 79%. For the same compound, the residual activity [19] was 100%, the residual activity [20] was 85% and the residual activity [21] was 95%. For the same compound, the residual activity [22] was 100%, the residual activity [23] was 100% and the residual activity [24] was 84%. For the same compound, the residual activity [25] was 100%, the residual activity [26] was 100% and the residual activity [27] was 92%. The residual activity [28] was 78%, the residual activity [29] was 97% and the residual activity [30] was 100%. The residual activity [31] was 100%, the residual activity [32] was 86% and the residual activity [33] was 100%. For the same compound, the residual activity [34] was 100%, the residual activity [35] was 100% and the residual activity [36] was 100%. For the same compound, the residual activity [37] was 66%, the residual activity [38] was 100% and the residual activity [39] was 29%. It also gave a residual activity [40] of 100%, an inhibition [41] of 23% and an inhibition [42] of -9.63%. It also gave an inhibition [43] of 1.07%, an inhibition [44] of 16.4% and an inhibition [45] of -7.15%.

`O=C(NC[C@@H]1[C@H]2CN(C(=O)OCc3cc(C(F)(F)F)cc(C(F)(F)F)c3)C[C@@H]12)c1ccc2[nH]nnc2c1` [BI 2545] showed a residual activity [1] of 88%, a residual activity [2] of 100% and a residual activity [3] of 94%. It also gave a residual activity [4] of 81%, a residual activity [5] of 95% and a residual activity [6] of 96%. For the same compound, the residual activity [7] was 61%, the residual activity [8] was 100% and the residual activity [9] was 89%. The residual activity [10] was 100%, the residual activity [11] was 84% and the residual activity [12] was 100%. For the same compound, the residual activity [13] was 95%, the residual activity [14] was 82% and the residual activity [15] was 72%. The residual activity [16] was 100%, the residual activity [17] was 100% and the residual activity [18] was 88%. For the same compound, the residual activity [19] was 100%, the residual activity [20] was 100% and the residual activity [21] was 53%. The residual activity [22] was 80%, the residual activity [23] was 100% and the residual activity [24] was 93%. For the same compound, the residual activity [25] was 77%, the residual activity [26] was 44% and the residual activity [27] was 73%. The residual activity [28] was 100%, the residual activity [29] was 100% and the residual activity [30] was 98%. The residual activity [31] was 64%, the residual activity [32] was 90% and the residual activity [33] was 100%. It also gave a residual activity [34] of 66%, a residual activity [35] of 100% and a residual activity [36] of 100%. The residual activity [37] was 94%, the residual activity [38] was 99% and the residual activity [39] was 100%. For the same compound, the residual activity [40] was 100%, the inhibition [41] was 43.2% and the inhibition [42] was 8.68%. For the same compound, the inhibition [43] was 6.61%, the inhibition [44] was 21.6% and the inhibition [45] was 15.5%.
